The results in this text go back to PMC10877733, “Discovery and Characterization of VU0542270, the First Selective Inhibitor of Vascular Kir6.1/SUR2B KATP Channels” (Molecular Pharmacology, 2024).

The target in one series is T1, Kir6.2/SUR1 (Homo sapiens, UniProt Q09428).
T1 construct: expressed in transfected cells; also transiently transfected HEK293T
The series can be described thus: Thallium flux assay of Kir6.2/SUR1 in HEK293 cells. The format is cell-based. The protocol:
The pcDNA3.1-SUR2B plasmid was generously provided by Dr. Colin Nichols (Washington University). The pcDNA5/TO-Kir6.1 plasmid was synthesized by GenScript. […] For selectivity assays, HEK293T cells were cotransfected with Kir6.x and SURX with Lipofectamine LTX and incubated for 48 hours before thallium flux assays.
(§1) Stable T-Rex-HEK293-Kir6.1/SUR2B cells or transiently transfected HEK293T cells were plated in polyamine-coated, clear-bottomed, black-walled 384-well plates and were cultured (37°C/5% CO2) overnight in Dulbecco’s modified Eagle’s medium (Gibco, Carlsbad, CA, 11995-065) containing 10% FBS (2 mM Penicillin-Streptomycin). The following day, cells were washed with assay buffer (i.e., Hanks’ balanced salt solution/20 mM HEPES) and loaded for 1 hour with thallium sensor dye Brilliant Thallium (Ion Bioscience, San Marcos, TX) at room temperature. Dye-loaded cells were washed with assay buffer and transferred to a Panoptic Kinetic Imaging Plate Reader (Wavefront Bioscience, Franklin, TN). Control and test compound treatments were for 4 minutes prior to adding 0.5 mM chloride-free thallium stimulus buffer (Ion Bioscience) to initiate thallium flux.

In a further series the target is T2, Kir4.1 (Homo sapiens, UniProt P78508).
T2 construct: expressed in transfected cells
T2 sequence (P78508 1-379): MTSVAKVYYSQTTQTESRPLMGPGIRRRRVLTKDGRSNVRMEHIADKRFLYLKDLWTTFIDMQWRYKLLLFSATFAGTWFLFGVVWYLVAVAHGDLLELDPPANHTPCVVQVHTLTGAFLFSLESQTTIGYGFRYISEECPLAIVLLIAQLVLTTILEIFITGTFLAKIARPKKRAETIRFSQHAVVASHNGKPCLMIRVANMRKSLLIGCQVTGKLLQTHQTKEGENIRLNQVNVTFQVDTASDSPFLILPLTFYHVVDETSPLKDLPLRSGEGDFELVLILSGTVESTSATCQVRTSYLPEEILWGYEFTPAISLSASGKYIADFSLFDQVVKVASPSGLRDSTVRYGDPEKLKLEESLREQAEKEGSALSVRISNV
In words: Thallium flux selectivity assay Kir4.1. In kind it is cell-based. As for the experimental part:
as §1, with “Quantitative thallium flux assays of Kir6.1/SUR2B activity were performed essentially as described previously for Kir6.2/SUR1 ([Raphemot et al., 2014]; [Kharade et al., 2019]). Stable” for “Stable”, “flux. […] Selectivity assays against other Kir channels were performed essentially as described previously ([Kharade et al., 2018]; [McClenahan et al., 2022]).” for “flux.”

Series [1] relates to Kir6.1- or Kir6.2-containing channels in complex with either SUR2A or SUR2B. In words: Thallium flux, Kir6.1 or Kir6.2 co-expressed with SUR2A or SUR2B in transfected HEK-293 cells. The format is cell-based. Particulars: 3 µM, Fig. 4D. From the text:
The pcDNA3.1-SUR2B plasmid was generously provided by Dr. Colin Nichols (Washington University). The pcDNA5/TO-Kir6.1 plasmid was synthesized by GenScript. Stably transfected tetracycline-regulated expression human embryonic kidney-293 (T-Rex-HEK293) cells expressing both plasmids were generated by cotransfecting cells with Lipofectamine LTX followed by antibiotic selection and clonal selection using the thallium flux assay described below. Monoclonal lines expressing robust pinacidil-activated thallium flux were selected for high KATP channel activity. T-Rex-HEK293 cells expressing Kir6.2/SUR1 were created as described previously ([Raphemot et al., 2014]). The cell culture media contained Dulbecco’s modified Eagle’s medium (Gibco, 11965-092) supplied with heat-inactivated FBS (bio-techne, Minneapolis, MN S11150H,10%), Blasticidine HCl (Gibco, A11139-03, 10 ug/mL), Penicillin-Streptomycin (Gibco, 15140-122, 2 mM), G418 Sulfate (CORNING, Corning, NY, 30-234-CR, 1 mg/mL), and Hygromycin B (Invitrogen, Carlsbad, CA, 10687-010, 250 ug/mL). […]
Quantitative thallium flux assays of Kir6.1/SUR2B activity were performed essentially as described previously for Kir6.2/SUR1 ([Raphemot et al., 2014]; [Kharade et al., 2019]). […] Dye-loaded cells were washed with assay buffer and transferred to a Panoptic Kinetic Imaging Plate Reader (Wavefront Bioscience, Franklin, TN). […]

Series [2] in a line: Plasma binding by equilibrium dialysis, human. The format is in vitro ADME. Particulars: equilibrium dialysis 6 hours 37°C, read-out: Fu, plasma (human). The protocol: Determination of VU0542270 fraction unbound (fu) in plasma from mouse, rat, and human was conducted in vitro via equilibrium dialysis using high-throughput dialysis (HTD) membrane plates. Dialysis membranes (four paired strips per HTD assay) were hydrated as described by the manufacturer and inserted into the HTD plate, which was assembled and prepared for sample addition by the dispensing of blank buffer [Delbecco’s phosphate buffered saline (DPBS), 100 µL/well] into the “top half” of each membrane-split well. VU0542270 was diluted into plasma from each species (5 µM final concentration), which was aliquoted in triplicate to the “bottom half” of the prepared HTD plate wells. The HTD plate was sealed and incubated for 6 hours at 37°C. Following incubation, each well (both top and bottom halves) was transferred (20 µL) to the corresponding well of a 96-shallow-well (V-bottom) plate. […]
fu was calculated as (analyte to IS mass spectrometry (MS) peak area ratio from Trans-buffer side)/(analyte to IS MS peak area ratio from Cis-plasma side). Mean values for each species were calculated from three replicates.
Background: Equilibrium dialysis compares concentrations on both sides of a semipermeable membrane.

“Also recorded” adds a separate entry of the source.

Usually IC50 stands for the concentration that inhibits the measured activity by half. The low end stands for higher potency, the high end for lower potency.

T1 sequence (Q09428 whole entry, species assumed): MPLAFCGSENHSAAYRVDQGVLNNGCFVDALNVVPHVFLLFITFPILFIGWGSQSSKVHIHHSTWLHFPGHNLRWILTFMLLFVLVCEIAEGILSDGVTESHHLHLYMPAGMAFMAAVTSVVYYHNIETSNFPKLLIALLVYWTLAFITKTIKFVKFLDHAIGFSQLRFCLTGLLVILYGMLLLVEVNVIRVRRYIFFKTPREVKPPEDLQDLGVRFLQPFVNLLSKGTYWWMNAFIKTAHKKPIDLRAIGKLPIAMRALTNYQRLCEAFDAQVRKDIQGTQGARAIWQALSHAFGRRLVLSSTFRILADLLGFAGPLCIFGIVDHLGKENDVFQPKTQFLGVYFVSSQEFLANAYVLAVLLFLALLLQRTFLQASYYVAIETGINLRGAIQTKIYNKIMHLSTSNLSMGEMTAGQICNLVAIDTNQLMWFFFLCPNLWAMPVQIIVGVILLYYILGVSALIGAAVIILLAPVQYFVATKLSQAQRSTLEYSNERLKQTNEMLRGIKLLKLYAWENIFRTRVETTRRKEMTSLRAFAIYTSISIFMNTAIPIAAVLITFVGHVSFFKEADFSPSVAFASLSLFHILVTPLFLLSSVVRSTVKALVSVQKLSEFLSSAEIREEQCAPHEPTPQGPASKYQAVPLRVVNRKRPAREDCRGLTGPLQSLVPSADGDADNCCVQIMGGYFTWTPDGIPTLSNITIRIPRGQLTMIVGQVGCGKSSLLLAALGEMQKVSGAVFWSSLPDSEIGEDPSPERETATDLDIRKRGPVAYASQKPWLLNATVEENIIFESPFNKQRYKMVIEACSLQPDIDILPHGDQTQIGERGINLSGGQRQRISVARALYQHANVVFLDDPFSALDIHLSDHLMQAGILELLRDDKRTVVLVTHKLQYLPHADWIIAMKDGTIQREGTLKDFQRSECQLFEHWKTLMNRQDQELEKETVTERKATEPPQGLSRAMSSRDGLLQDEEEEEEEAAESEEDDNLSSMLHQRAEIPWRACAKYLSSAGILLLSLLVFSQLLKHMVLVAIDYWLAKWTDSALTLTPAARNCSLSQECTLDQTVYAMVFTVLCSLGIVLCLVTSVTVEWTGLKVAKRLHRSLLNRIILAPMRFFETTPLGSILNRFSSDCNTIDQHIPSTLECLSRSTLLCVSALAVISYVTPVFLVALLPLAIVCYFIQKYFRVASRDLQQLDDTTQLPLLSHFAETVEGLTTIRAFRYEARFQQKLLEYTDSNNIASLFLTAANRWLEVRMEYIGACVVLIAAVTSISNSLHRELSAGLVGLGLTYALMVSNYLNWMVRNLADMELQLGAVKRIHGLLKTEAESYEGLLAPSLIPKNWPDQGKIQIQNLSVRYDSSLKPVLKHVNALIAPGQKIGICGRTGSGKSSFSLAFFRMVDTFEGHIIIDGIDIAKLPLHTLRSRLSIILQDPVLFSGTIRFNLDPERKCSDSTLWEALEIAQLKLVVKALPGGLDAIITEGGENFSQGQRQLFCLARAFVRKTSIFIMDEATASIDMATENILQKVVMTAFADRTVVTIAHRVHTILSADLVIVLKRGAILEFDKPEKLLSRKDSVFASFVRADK
T1 sequence (Q14654 whole entry partner, species assumed): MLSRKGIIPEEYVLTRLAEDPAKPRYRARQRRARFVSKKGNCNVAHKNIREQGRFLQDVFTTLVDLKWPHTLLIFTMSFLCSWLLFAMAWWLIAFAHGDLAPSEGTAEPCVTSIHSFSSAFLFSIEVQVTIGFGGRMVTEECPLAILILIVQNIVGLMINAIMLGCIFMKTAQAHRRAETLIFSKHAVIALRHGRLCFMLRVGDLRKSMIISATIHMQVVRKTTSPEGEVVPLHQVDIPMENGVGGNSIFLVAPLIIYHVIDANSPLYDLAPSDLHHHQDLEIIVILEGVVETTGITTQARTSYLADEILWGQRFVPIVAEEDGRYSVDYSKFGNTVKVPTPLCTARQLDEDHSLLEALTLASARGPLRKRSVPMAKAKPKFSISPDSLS

As to `Cc1nc(-c2cccs2)sc1CNC(=O)Nc1cccs1` [VU0542270], the “activity toward Kir6.2/SUR1” value on Kir6.2/SUR1 (doses up to 30 µM) is given as “no apparent activity”. Further, the 50% inhibitory concentration (IC50) is greater than 30 µM against Kir6.2/SUR1 (thallium flux, Table 1 selectivity profile) and greater than 30 µM at Kir4.1. For the same compound, the “Kir6.2/SUR1 IC50, ATP depletion” value at Kir6.2/SUR1 (thallium flux, transfected HEK-293 cells, channels activated by metabolic inhibition (ATP depletion) (Fig. 4B)) was “failed to inhibit; also recorded: no fit”. Further, at Kir6.2/SUR1 (thallium flux, transfected HEK-293 cells, channels activated with VU0071063 (Fig. 4A)), the “Kir6.2/SUR1 IC50, VU0071063 activation” value was “failed to inhibit; also recorded: no fit”. The “inhibition of Kir6.1- or Kir6.2-containing channels with SUR2A or SUR2B” value in series [1] is recorded as “inhibits”. The fraction unbound at 6 h, 5 µM in series [2] amounted to 0.01.
